{"source": "ChEMBL document CHEMBL4665709", "about": "“Rational Avoidance of Protease Cleavage Sites and Symmetrical End-Tagging Significantly Enhances the Stability and Therapeutic Potential of Antimicrobial Peptides” (J Med Chem, 2020)", "key": {"[1]": {"assay": "Therapeutic index, ratio of MHC for human RBC to geometric mean of peptide MIC for Staphylococcus epidermidis ATCC 12228", "assay_type": "toxicity", "conditions": "human red blood cells (RBC), read-out: TI"}, "[2]": {"assay": "Therapeutic index, ratio of MHC for human RBC to geometric mean of peptide MIC for Staphylococcus aureus ATCC 29213", "assay_type": "toxicity", "conditions": "human red blood cells (RBC), read-out: TI"}, "[3]": {"assay": "Therapeutic index, ratio of MHC for human RBC to geometric mean of peptide MIC for Staphylococcus aureus 11011", "assay_type": "toxicity", "conditions": "human red blood cells (RBC), read-out: TI"}, "[4]": {"assay": "Therapeutic index, ratio of MHC for human RBC to geometric mean of peptide MIC for Salmonella typhimurium 7731", "assay_type": "toxicity", "conditions": "human red blood cells (RBC), read-out: TI"}, "Cell membrane [5]": {"test_system": "Cell membrane", "assay": "Disruption of membrane integrity in Staphylococcus aureus ATCC 29213 assessed as induction of membrane rupture at 0.5 to 2 times after 1 hr by PI-staining based fluorescence microscopy", "assay_type": "subcellular"}, "Escherichia coli [6]": {"test_system": "Escherichia coli", "assay": "Antibacterial activity against Escherichia coli ATCC 25922 infected in C57BL/6 mouse assessed as reduction in lesion in spleen at 10 mg/kg, ip measured after 11 hrs by hematoxylin and eosin staining based assay", "assay_type": "functional, organism-based"}, "[7]": {"assay": "Toxicity in C57BL/6 mouse assessed as effect on alanine aminotransferase level at 20 mg/kg, ip measured after 5 days", "assay_type": "organism-based", "conditions": "in vivo, 120 h, time 5 day"}, "Escherichia coli [8]": {"test_system": "Escherichia coli", "assay": "Antibacterial activity against Escherichia coli UB1005 after 18 to 24 hrs by CLSI-based broth microdilution method", "assay_type": "functional", "conditions": "time hrs 18-24"}, "Staphylococcus aureus [9]": {"test_system": "Staphylococcus aureus", "assay": "Antibacterial activity against methicillin-resistant Staphylococcus aureus 43300 after 18 to 24 hrs by CLSI-based broth microdilution method", "assay_type": "functional", "conditions": "time hrs 18-24"}, "[10]": {"assay": "Cytotoxicity against mouse RAW264.7 cells assessed as cell viability at 128 uM by MTT assay relative to control", "assay_type": "cell-based", "conditions": "read-out: Activity"}, "Escherichia coli [11]": {"test_system": "Escherichia coli", "assay": "Antibacterial activity against Escherichia coli ATCC 25922 after 18 to 24 hrs in presence of 4.5 mM K+ by CLSI-based broth microdilution method", "assay_type": "functional", "conditions": "time hrs 18-24"}, "Escherichia coli [12]": {"test_system": "Escherichia coli", "assay": "Antibacterial activity against Escherichia coli ATCC 25922 after 18 to 24 hrs in presence of 25% human serum by CLSI-based broth microdilution method", "assay_type": "functional", "conditions": "time hrs 18-24"}, "Escherichia coli [13]": {"test_system": "Escherichia coli", "assay": "Antibacterial activity against Escherichia coli ATCC 25922 after 18 to 24 hrs in presence of 50% human serum by CLSI-based broth microdilution method", "assay_type": "functional", "conditions": "time hrs 18-24"}, "Staphylococcus aureus [14]": {"test_system": "Staphylococcus aureus", "assay": "Antibacterial activity against Staphylococcus aureus ATCC 29213 after 18 to 24 hrs in presence of 4.5 mM K+ by CLSI-based broth microdilution method", "assay_type": "functional", "conditions": "time hrs 18-24"}, "Staphylococcus aureus [15]": {"test_system": "Staphylococcus aureus", "assay": "Antibacterial activity against Staphylococcus aureus ATCC 29213 after 18 to 24 hrs in presence of 6 uM NH4+ by CLSI-based broth microdilution method", "assay_type": "functional", "conditions": "time hrs 18-24"}, "Staphylococcus aureus [16]": {"test_system": "Staphylococcus aureus", "assay": "Antibacterial activity against Staphylococcus aureus ATCC 29213 after 18 to 24 hrs in presence of 25% human serum by CLSI-based broth microdilution method", "assay_type": "functional", "conditions": "time hrs 18-24"}, "Staphylococcus aureus [17]": {"test_system": "Staphylococcus aureus", "assay": "Antibacterial activity against Staphylococcus aureus ATCC 29213 after 18 to 24 hrs in presence of 100% human serum by CLSI-based broth microdilution method", "assay_type": "functional", "conditions": "time hrs 18-24"}, "Staphylococcus aureus [18]": {"test_system": "Staphylococcus aureus", "assay": "Antibacterial activity against Staphylococcus aureus 29213 with 0.0625-2 mg/mL pepsin for 1 hr followed by test compound addition measured after 4 to 8 hrs by CLSI-based broth microdilution method", "assay_type": "functional, organism-based", "conditions": "time hrs 4-8"}, "[19]": {"assay": "Toxicity in C57BL/6 mouse assessed as effect on blood urea nitrogen level at 10 mg/kg, ip measured after 5 days", "assay_type": "organism-based", "conditions": "in vivo, 120 h, time 5 day"}, "[20]": {"assay": "Toxicity in C57BL/6 mouse assessed as effect on aspartate aminotransferase level at 20 mg/kg, ip measured after 5 days", "assay_type": "organism-based", "conditions": "in vivo, 120 h, time 5 day"}, "[21]": {"assay": "Toxicity in C57BL/6 mouse assessed as effect on total bilirubin level at 20 mg/kg, ip measured after 5 days", "assay_type": "organism-based", "conditions": "in vivo, 120 h, time 5 day"}, "[22]": {"assay": "Toxicity in C57BL/6 mouse assessed as effect on aspartate aminotransferase level at 10 mg/kg, ip measured after 5 days", "assay_type": "organism-based", "conditions": "in vivo, 120 h, time 5 day"}, "Escherichia coli [23]": {"test_system": "Escherichia coli", "assay": "Antibacterial activity against Escherichia coli ATCC 25922 infected in C57BL/6 mouse assessed as reduction in bacterial load in kidney at 10 mg/kg, ip measured after 11 hrs (reference value: 7.59 log CFU/g)", "assay_type": "functional"}, "Escherichia coli [24]": {"test_system": "Escherichia coli", "assay": "Antibacterial activity against Escherichia coli ATCC 25922 infected in C57BL/6 mouse assessed as reduction in bacterial load in lung at 10 mg/kg, ip measured after 11 hrs (reference value: 6.48 log CFU/g)", "assay_type": "functional"}, "Escherichia coli [25]": {"test_system": "Escherichia coli", "assay": "Antibacterial activity against Escherichia coli ATCC 25922 infected in C57BL/6 mouse reduction in inflammatory cell infiltration in liver at 10 mg/kg, ip measured after 11 hrs by hematoxylin and eosin staining based assay", "assay_type": "functional, organism-based"}, "Escherichia coli [26]": {"test_system": "Escherichia coli", "assay": "Antibacterial activity against Escherichia coli ATCC 25922 infected in C57BL/6 mouse assessed as reduction in IL-1beta level in serum at 10 mg/kg, ip measured after 11 hrs by ELISA", "assay_type": "functional, organism-based"}, "Escherichia coli [27]": {"test_system": "Escherichia coli", "assay": "Antibacterial activity against Escherichia coli ATCC 25922 infected in C57BL/6 mouse assessed as reduction in IL-6 level in serum at 10 mg/kg, ip measured after 11 hrs by ELISA", "assay_type": "functional, organism-based"}, "Escherichia coli [28]": {"test_system": "Escherichia coli", "assay": "Antibacterial activity against Escherichia coli ATCC 25922 infected in C57BL/6 mouse assessed as reduction in TNF-alpha level in serum at 10 mg/kg, ip measured after 11 hrs by ELISA", "assay_type": "functional, organism-based"}, "RAW264.7 [29]": {"test_system": "RAW264.7", "assay": "Antiinflammatory activity in mouse RAW264.7 cells assessed as inhibition of LPS-induced IL-1beta production after 24 hrs by ELISA", "assay_type": "functional, cell-based"}, "RAW264.7 [30]": {"test_system": "RAW264.7", "assay": "Antiinflammatory activity in mouse RAW264.7 cells assessed as inhibition of LPS-induced IL-6 production after 24 hrs by ELISA", "assay_type": "functional, cell-based"}, "Trypsin": {"biological_target": "Trypsin (Homo sapiens, UniProt P07477+P07478+P35030)", "assay": "Stability of compound assessed as trypsin (unknown origin)-mediated drug degradation after 8 hrs by SDS-PAGE analysis", "assay_type": "ADME, protein assay"}, "Lipopolysaccharide (LPS)": {"test_system": "Lipopolysaccharide (LPS)", "assay": "Displacement of BODIPY-TR-cadaverine from Escherichia coli O111:B4 LPS after 4 hrs by fluorescence assay"}, "Cell membrane [31]": {"test_system": "Cell membrane", "assay": "Induction of cytoplasmic membrane depolarization in Escherichia coli ATCC 25922 at 0.5 to 2 times MIC up to 1000 secs by DiSC3-5 dye-based fluorescence assay", "assay_type": "subcellular", "conditions": "time sec <=1000"}, "Cell membrane [32]": {"test_system": "Cell membrane", "assay": "Induction of cytoplasmic membrane depolarization in Staphylococcus aureus ATCC 29213 at 0.5 to 2 times MIC up to 1000 secs by DiSC3-5 dye-based fluorescence assay", "assay_type": "subcellular", "conditions": "time sec <=1000"}, "Cell membrane [33]": {"test_system": "Cell membrane", "assay": "Induction of morpholoical changes in membrane of Escherichia coli ATCC 25922 assessed as breakage in bacterial membrane at 1 times MIC after 1 hr by scanning electron microscopy"}, "Cell membrane [34]": {"test_system": "Cell membrane", "assay": "Induction of structural changes in membrane of Escherichia coli ATCC 25922 assessed as outer membrane separation at 1 times MIC after 1 hr by transmission electron microscopy", "assay_type": "subcellular"}, "Cell membrane [35]": {"test_system": "Cell membrane", "assay": "Induction of structural changes in membrane of Staphylococcus aureus ATCC 29213 assessed as membrane damage at 1 times MIC after 1 hr by transmission electron microscopy", "assay_type": "subcellular"}}, "note": "The source made the active and inactive calls. No cut-off for these calls is given here. Where a SMILES comes first, the peptide text is derived from it."}
{"smiles": "CC[C@H](C)[C@H](N)C(=O)N[C@H](C(=O)N[C@H](C(=O)N[C@@H](CS)C(=O)N[C@@H](CCCNC(=N)N)C(=O)N[C@@H](CCCCN)C(=O)N1CCC[C@H]1C(=O)N[C@H](C(=O)N[C@H](C(=O)N[C@@H](CS)C(=O)N[C@@H](CCCNC(=N)N)C(=O)N[C@@H](CCCCN)C(=O)N1CCC[C@H]1C(=O)N[C@H](C(=O)N[C@H](C(=O)N[C@@H](CS)C(=O)N[C@@H](CCCNC(=N)N)C(=O)N[C@@H](CCCCN)C(=O)N1CCC[C@H]1C(=O)N[C@H](C(=O)N[C@H](C(=O)N[C@@H](CS)C(=O)N[C@@H](CCCNC(=N)N)C(=O)N[C@@H](CCCCN)C(=O)N1CCC[C@H]1C(=O)N[C@H](C(=O)N[C@H](C(=O)N[C@H](C(N)=O)[C@@H](C)CC)[C@@H](C)CC)[C@@H](C)CC)[C@@H](C)CC)[C@@H](C)CC)[C@@H](C)CC)[C@@H](C)CC)[C@@H](C)CC)[C@@H](C)CC)[C@@H](C)CC)[C@@H](C)CC", "note": "(H-IIICRKPIICRKPIICRKPIICRKPIII-NH2)", "values": [{"measurement": "selectivity ratio", "setting": "[1]", "value": 28.5}, {"measurement": "selectivity ratio", "setting": "[2]", "value": 28.5}, {"measurement": "selectivity ratio", "setting": "[3]", "value": 28.5}, {"measurement": "selectivity ratio", "setting": "[4]", "value": 57}, {"measurement": "Activity", "setting": "Cell membrane [5]", "value": "Active"}, {"measurement": "Activity", "setting": "Escherichia coli [6]", "value": "Active"}, {"measurement": "Activity", "setting": "[7]", "value": "Non-Toxic"}, {"measurement": "MIC", "setting": "Escherichia coli [8]", "value": 2, "unit": "µM"}, {"measurement": "MIC", "setting": "Staphylococcus aureus [9]", "value": 4, "unit": "µM"}, {"measurement": "viability at 128 µM", "setting": "[10]", "value": "> 90", "unit": "%"}, {"measurement": "MIC", "setting": "Escherichia coli [11]", "value": 2, "unit": "µM"}, {"measurement": "MIC", "setting": "Escherichia coli [12]", "value": 4, "unit": "µM"}, {"measurement": "MIC", "setting": "Escherichia coli [13]", "value": 4, "unit": "µM"}, {"measurement": "MIC", "setting": "Staphylococcus aureus [14]", "value": 8, "unit": "µM"}, {"measurement": "MIC", "setting": "Staphylococcus aureus [15]", "value": 8, "unit": "µM"}, {"measurement": "MIC", "setting": "Staphylococcus aureus [16]", "value": 8, "unit": "µM"}, {"measurement": "MIC", "setting": "Staphylococcus aureus [17]", "value": 32, "unit": "µM"}, {"measurement": "Activity", "setting": "Staphylococcus aureus [18]", "value": "Active"}, {"measurement": "Activity", "setting": "[19]", "value": "Non-Toxic"}, {"measurement": "Activity", "setting": "[20]", "value": "Non-Toxic"}, {"measurement": "Activity", "setting": "[21]", "value": "Non-Toxic"}, {"measurement": "Activity", "setting": "[22]", "value": "Non-Toxic"}, {"measurement": "Activity", "setting": "Escherichia coli [23]", "value": 5.38, "unit": "log10CFU/g"}, {"measurement": "Activity", "setting": "Escherichia coli [24]", "value": 5.58, "unit": "log10CFU/g"}, {"measurement": "Activity", "setting": "Escherichia coli [25]", "value": "Active"}, {"measurement": "Activity", "setting": "Escherichia coli [26]", "value": "Active"}, {"measurement": "Activity", "setting": "Escherichia coli [27]", "value": "Active"}, {"measurement": "Activity", "setting": "Escherichia coli [28]", "value": "Active"}, {"measurement": "Activity", "setting": "RAW264.7 [29]", "value": "Dose-dependent effect"}, {"measurement": "Activity", "setting": "RAW264.7 [30]", "value": "Dose-dependent effect"}, {"measurement": "Stabilty", "setting": "Trypsin", "value": "Stable"}, {"measurement": "Activity", "setting": "Lipopolysaccharide (LPS)", "value": "Dose-dependent effect"}, {"measurement": "Activity", "setting": "Cell membrane [31]", "value": "Active"}, {"measurement": "Activity", "setting": "Cell membrane [32]", "value": "Active"}, {"measurement": "Activity", "setting": "Cell membrane [33]", "value": "Active"}, {"measurement": "Activity", "setting": "Cell membrane [34]", "value": "Active"}, {"measurement": "Activity", "setting": "Cell membrane [35]", "value": "Active"}]}
